# Measurements reported in patent US20190209472A1, “FORMULATIONS FOR DERMAL DELIVERY OF POLYMER CONJUGATES OF INDOLOCARBAZOLE COMPOUNDS WITH REDUCED EXPOSURE” (Sienna Biopharmaceuticals, Inc., priority 2017, published 2019).
# Tested on: pruritus associated with psoriasis vulgaris
# Assay: Phase 1b maximal use study: exploratory efficacy (I-NRS, PASI, IGA, BSA)
# Assay type: in vivo, human
# From the text: Efficacy Evaluations: Change from baseline at each study visit in the I-NRS; Change from baseline at each study visit in the Psoriasis Area and Severity Index ([…]) score; PASI-75: response defined as a reduction of ≥75% from baseline at each study visit on the PASI; PASI-50: response defined as a reduction of ≥50% from baseline at each study visit on the PASI; Change from baseline at each study visit in the Investigator Global Assessment (IGA); Proportion of subjects with a ≥1-grade decrease on the IGA at each study visit; Proportion of subjects with a ≥2-grade decrease on the IGA at each study visit; and Change from baseline at each study visit in BSA affected by psoriasis.
# Subject Assessments—Itch Numeric Rating Scale: The I-NRS is a 1 item daily PRO measure that the subjects use to assess pruritus severity at its worst in the 24 hours prior to the assessment based on an 11-point numeric rating scale ranging from 0 (“no itching at all”) to 10 (“worst possible itching”). The I-NRS assesses overall pruritus severity. An I-NRS score of at least 4 is required to be eligible for the study. The investigator will evaluate subject eligibility based on itch associated with PV plaques at Screening. The Baseline measurement will be collected on Study Day 1 prior to study drug administration. The change from Baseline at each study visit will be determined.
# Investigator Assessments: Investigator assessments include: BSA affected by psoriasis; IGA of overall psoriasis (Apremilast (Otezla) CDER Medical Review of Celgene NDA, 2014. Accessdata.fda.gov. Accessed Aug. 8, 2017.); and PASI (Fredriksson T, Pettersson U. Severe psoriasis—oral therapy with a new retinoid. Dermatologica. 1978; 157(4):238-244.).
# Body Surface Area Affected by Psoriasis: Assessment of the percentage of a subject's BSA affected by psoriasis will be made by best estimates of the investigator, using the “handprint” method where 1%=1 subject handprint. At screening and baseline this should be ≥20% of BSA. The change from baseline BSA affected by psoriasis will be determined.
# Investigator Global Assessment: The IGA is a site-based clinician-reported outcome measure that assesses the overall severity of psoriasis by evaluating induration (plaque elevation), erythema, and desquamation (scaling) on a 5-point scale from 0 to 4, where 0=Clear to 4=Severe. The investigator will make this assessment to calculate the overall improvement in psoriasis (the proportion of subjects achieving a rating of “Clear” or “Almost Clear” and at least a 2-point decrease [improvement] on the 5-point scale) using the IGA. The proportion of subjects achieving at least a 1-grade and 2-grade decrease from baseline will also be calculated.
# Psoriasis Area and Severity Index: The PASI score is a site-based ClinRO by which a weighted sum of erythema, scaling, and induration/thickness scores over different regions of the body is determined, using the algorithm given in Fredriksson T, Pettersson U., Dermatologica. 1978; 157(4):238-244.). Each symptom will be scored on a 5-point scale from 0 to 4, where 0=Clear and 4=Very marked. The change from Baseline in the PASI score, and the percentages of subjects who have achieved a ≥75% or ≥50% reduction from baseline (PASI-75 and PASI-50, respectively), will be determined.
substance,measurement,setting,value
"(9S, 10R, 12R)-10-(3′-mPEG2000-1′,3′-oxazolidine-2′,4′-dione)-2,3,9,10,11,12-hexahydro-9-methyl-1-oxo-9,12-epoxy-1H-diindolo[1,2,3-fg:3′,2′,1′-k,l]pyrrolo[3,4-i][1,6] benzodiazocine] [CT327]","IGA 1-grade, % of subjects",Week 4,(30%)
same,"IGA 2-grade, % of subjects",Week 4,(13.3%)
same,"NRS 3-grade, % of subjects",Week 4,(60.0%)
same,"NRS 50, % of subjects",Week 4,(46.7%)
same,"NRS (% change from baseline), mean",Week 4,−41.35%
same,"PASI 50, % of subjects",Week 4,(33.3%)
same,"PASI 75, % of subjects",Week 4,(10.0%)
same,"PASI (change from baseline), mean",Week 4,−6.44
same,"NRS (change from baseline), mean","Week 4, 0.5% SNA-120 (w/w) ointment twice daily, open label",−3.4
same,Subjects with at least a 4-grade improvement in the Itch Numeric Rating Scale (I-NRS),post hoc analysis,approximately 57% of subjects
